{"source": "patent US10828335B2", "about": "“Production of midbrain dopaminergic neurons and methods for the use thereof” (FUJIFILM Cellular Dynamics, Inc., priority 2014, dated 2020)", "assay_type_in_all_cases": "cell-based, human", "key": {"[1]": {"test_system": "cells differentiated from iPS cell line MAP2 Neo #2", "test": "Flow cytometry of cells made with the No FGF8 protocol with drug selection (+G418) (Example 2)", "conditions": "+G418, 7 days post-thaw", "description": "On Day 19, cells were dissociated using Accutase (45 min) and were re-plated at 3.1×10^5 cells/cm^2 onto flasks pre-coated with poly-L-ornithine and laminin (PLO/laminin) in Maturation Medium containing 2.5 μM blebbistatin. Cells were fed with Maturation Medium on Days 20, 22 and 24. To compare unselected cells to those that had undergone drug selection, in some experiments a side-arm condition of cells were fed on Day 22 and 24 with Maturation Medium containing 100 μg/mL G418 to select against cells not expressing the neomycin resistance gene under the control of a pan-neuronal MAP2 promoter.\nOn Day 26, cells were dissociated using Accutase (45 min) and cryopreserved in CryoStor CS10 medium at 1.25×10^7 cells/mL using a controlled rate freezer.\nIn further studies the purity of mature midbrain DA neurons was assessed by flow cytometry of cells generated using a “no FGF8” protocol alone compared to cells obtained using a drug selection method. When the cells are cryopreserved on day 26 with no drug selection, they are 99% FoxA2^+, 40% TH^+, and 77% Map2^+. […] For comparison, cells made using the same protocol but with drug selection (+G418), the final purity at 7 days post-thaw was 96% FoxA2^+, 63% TH^+, and 98% Map2^+."}, "[2]": {"test_system": "cells differentiated from iPS cell line MAP2 Neo #2", "test": "Flow cytometry of midbrain DA neuron differentiation with G418 drug selection (Example 1)", "conditions": "day 38; 100 μg/mL G418 selection; same protocol without drug selection gave 39% neurons", "description": "On Day 24, cells were dissociated using Accutase (45 min) and were re-plated at 3.1×10^5 cells/cm^2 onto flasks pre-coated with poly-L-ornithine and laminin (PLO/laminin) in Maturation Medium containing 2.5 μM blebbistatin. Cells were fed with Maturation Medium on Day 25. On Day 27 and Day 29, cells were fed with Maturation Medium containing 100 μg/mL G418 to select against cells not expressing the neomycin resistance gene under the control of a pan-neuronal MAP2 promoter.\nOn Day 31, cells were dissociated using Accutase (45 min) and were re-plated at 3.1×10^5 cells/cm^2 onto PLO/ laminin flasks in Maturation Medium containing 100 μg/mL G418 and 2.5 μM blebbistatin. On Day 32, Day 34 and Day 36, cells were fed with Maturation Medium. On Day 38, cells were dissociated using Accutase (45 min) and cryopreserved in CryoStor CS10 medium at 1.25×10^7 cells/mL using a controlled rate freezer.\nThe effect of drug selection on gene expression in cell populations was also analyzed. […] This iPS cell lines (MAP2 Neo #2 (01279.107.00402)) was generated using zinc finger nuclease-mediated homologous recombination at the AAVS1 safe harbor site, as detailed above. The midbrain DA neuron differentiation protocol performed without drug selection results in a population of cells that is 39% neurons (Map2^+/Nestin^−) on day 38. […]"}, "MAP2 Neo #2 iPS cells": {"test_system": "MAP2 Neo #2 iPS cells", "test": "Midbrain specification during DA progenitor induction with a MEK inhibitor", "conditions": "1 μM PD0325901 added from Day 2 of differentiation", "description": "Day 1 medium was composed of DMEM/F12 with B27 Supplement and containing a cocktail of small molecule inhibitors and activators (“Induction Cocktail”): 200 nM LDN-193189, […] SB431542, 2 μM purmorphamine, 100 ng/mL Shh C25II and 1.25 μM CHIR 99021. […] On Day 3 and Day 4, the cells were fed with DMEM/F12 with B27 (−Vitamin A)+Induction Cocktail+1 μM PD0325901."}}, "data": [{"smiles": "CN[C@@H]1[C@@H](O)[C@@H](O[C@@H]2[C@@H](O)[C@H](O[C@H]3O[C@H]([C@@H](C)O)[C@@H](O)[C@H](O)[C@H]3N)[C@@H](N)C[C@H]2N)OC[C@]1(C)O", "note": "[G418]", "values": [{"measurement": "TH+ cells, final purity", "setting": "[1]; without selection 55%", "value": 63, "unit": "%"}, {"measurement": "Map2+ cells, final purity", "setting": "[1]; without selection 90%", "value": 98, "unit": "%"}, {"measurement": "FoxA2+ cells, final purity", "setting": "[1]; without selection 93%", "value": 96, "unit": "%"}, {"measurement": "neurons (Map2+/Nestin-) in the cell population", "setting": "[2]", "value": 95, "unit": "%"}]}, {"smiles": "O=C(NOC[C@H](O)CO)c1ccc(F)c(F)c1Nc1ccc(I)cc1F", "note": "[PD0325901]", "values": [{"measurement": "midbrain specification", "setting": "MAP2 Neo #2 iPS cells", "value": "induces faster and more efficient midbrain specification"}]}]}
